Measurements reported in ChEMBL document CHEMBL4270518 (Eur J Med Chem, 2018).
Calls of active or inactive are those of the source. No cut-off for these calls is given here.

Key:
[1] = target: T1, Protein deacetylase HDAC6 (Homo sapiens, UniProt Q9UBN7); assay: Inhibition of human recombinant HDAC6 using RHKKAcAMC as substrate by fluorescence assay
T1 sequence (Q9UBN7 whole entry): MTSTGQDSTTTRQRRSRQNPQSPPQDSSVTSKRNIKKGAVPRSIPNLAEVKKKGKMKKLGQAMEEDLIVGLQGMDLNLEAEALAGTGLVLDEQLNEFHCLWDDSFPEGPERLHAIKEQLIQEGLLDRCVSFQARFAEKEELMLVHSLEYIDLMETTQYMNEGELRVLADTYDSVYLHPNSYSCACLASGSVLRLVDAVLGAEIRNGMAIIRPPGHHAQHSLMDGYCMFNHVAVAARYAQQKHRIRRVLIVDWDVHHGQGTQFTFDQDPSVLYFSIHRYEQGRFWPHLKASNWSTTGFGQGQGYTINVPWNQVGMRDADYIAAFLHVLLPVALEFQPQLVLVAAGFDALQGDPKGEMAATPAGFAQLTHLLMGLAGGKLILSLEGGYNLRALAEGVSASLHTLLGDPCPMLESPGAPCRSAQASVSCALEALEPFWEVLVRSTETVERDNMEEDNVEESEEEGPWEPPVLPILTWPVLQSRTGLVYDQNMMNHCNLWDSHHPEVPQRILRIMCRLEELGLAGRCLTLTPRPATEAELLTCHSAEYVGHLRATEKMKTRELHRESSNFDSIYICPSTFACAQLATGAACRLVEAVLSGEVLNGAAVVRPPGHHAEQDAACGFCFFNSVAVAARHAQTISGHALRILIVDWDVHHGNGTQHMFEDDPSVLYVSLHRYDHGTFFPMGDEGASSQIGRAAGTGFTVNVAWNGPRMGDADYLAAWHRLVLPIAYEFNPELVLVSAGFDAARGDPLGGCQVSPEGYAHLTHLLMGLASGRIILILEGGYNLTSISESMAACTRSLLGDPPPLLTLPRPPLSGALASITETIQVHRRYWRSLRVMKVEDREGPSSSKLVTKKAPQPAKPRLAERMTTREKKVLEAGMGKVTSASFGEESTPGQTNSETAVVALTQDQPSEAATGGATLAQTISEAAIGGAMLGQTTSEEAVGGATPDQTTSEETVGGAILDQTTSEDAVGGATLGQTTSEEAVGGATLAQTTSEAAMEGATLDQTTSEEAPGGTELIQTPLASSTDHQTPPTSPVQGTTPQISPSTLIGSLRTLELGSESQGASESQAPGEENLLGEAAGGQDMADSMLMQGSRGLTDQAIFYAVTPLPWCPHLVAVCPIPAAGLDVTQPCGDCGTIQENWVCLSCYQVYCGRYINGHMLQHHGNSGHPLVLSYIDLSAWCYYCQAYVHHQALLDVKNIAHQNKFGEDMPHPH

MV4-11 [2] = assay: Inhibition of class 1 HDAC in human MV4-11 cells assessed as hyperacetylation of histone H3 at 200 nM after 24 hrs by Western blot analysis; assay type: cell-based
[3] = target: T2, Protein deacetylase HDAC6 (Homo sapiens) (UniProt Q9UBN7); assay: Inhibition of HDAC6 in human MV4-11 cells assessed as accumulation of acetylated alpha-tubulin at 50 nM after 24 hrs by Western blot analysis; assay type: cell-based
T2 sequence (whole entry): T1 sequence (Q9UBN7 whole entry)

Histone deacetylase 1 = Histone deacetylase 1 (Homo sapiens, UniProt Q13547); assay: Inhibition of human recombinant HDAC1 using RHKKAcAMC as substrate by fluorescence assay
Histone deacetylase 1, sequence (Q13547 whole entry): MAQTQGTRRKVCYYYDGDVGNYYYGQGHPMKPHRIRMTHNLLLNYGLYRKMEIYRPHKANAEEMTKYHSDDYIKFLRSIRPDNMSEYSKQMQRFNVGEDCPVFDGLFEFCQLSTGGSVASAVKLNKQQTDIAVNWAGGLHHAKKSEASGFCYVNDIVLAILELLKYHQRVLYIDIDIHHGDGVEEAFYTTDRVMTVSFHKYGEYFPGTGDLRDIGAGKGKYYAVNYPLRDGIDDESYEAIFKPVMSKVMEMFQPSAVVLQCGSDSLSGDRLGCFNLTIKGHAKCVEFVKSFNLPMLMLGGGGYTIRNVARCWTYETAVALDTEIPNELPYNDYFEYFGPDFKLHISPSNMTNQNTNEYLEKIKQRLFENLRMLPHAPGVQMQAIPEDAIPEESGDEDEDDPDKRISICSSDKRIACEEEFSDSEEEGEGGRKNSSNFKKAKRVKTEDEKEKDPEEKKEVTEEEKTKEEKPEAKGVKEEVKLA

Histone deacetylase 2 = Histone deacetylase 2 (Homo sapiens, UniProt Q92769); assay: Inhibition of human recombinant HDAC2 using RHKKAcAMC as substrate by fluorescence assay
Histone deacetylase 2, sequence (Q92769 whole entry): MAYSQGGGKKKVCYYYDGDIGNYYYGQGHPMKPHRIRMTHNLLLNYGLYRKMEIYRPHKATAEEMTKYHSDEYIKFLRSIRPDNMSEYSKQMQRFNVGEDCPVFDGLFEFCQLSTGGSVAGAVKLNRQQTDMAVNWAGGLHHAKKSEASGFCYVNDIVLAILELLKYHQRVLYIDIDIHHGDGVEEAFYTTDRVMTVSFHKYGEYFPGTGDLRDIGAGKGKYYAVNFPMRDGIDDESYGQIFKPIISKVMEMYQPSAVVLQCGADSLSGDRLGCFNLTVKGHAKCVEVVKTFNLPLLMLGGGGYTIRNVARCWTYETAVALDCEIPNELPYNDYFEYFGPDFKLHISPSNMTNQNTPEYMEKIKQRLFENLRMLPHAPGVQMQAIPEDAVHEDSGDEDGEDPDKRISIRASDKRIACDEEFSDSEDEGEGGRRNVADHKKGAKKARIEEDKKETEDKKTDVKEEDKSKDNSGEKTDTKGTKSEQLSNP

Histone deacetylase 4 = Histone deacetylase 4 (Homo sapiens, UniProt P56524); assay: Inhibition of human recombinant HDAC4 using fluorogenic trifluoroacetyl lysine as substrate by fluorescence assay
Histone deacetylase 4, sequence (P56524 whole entry): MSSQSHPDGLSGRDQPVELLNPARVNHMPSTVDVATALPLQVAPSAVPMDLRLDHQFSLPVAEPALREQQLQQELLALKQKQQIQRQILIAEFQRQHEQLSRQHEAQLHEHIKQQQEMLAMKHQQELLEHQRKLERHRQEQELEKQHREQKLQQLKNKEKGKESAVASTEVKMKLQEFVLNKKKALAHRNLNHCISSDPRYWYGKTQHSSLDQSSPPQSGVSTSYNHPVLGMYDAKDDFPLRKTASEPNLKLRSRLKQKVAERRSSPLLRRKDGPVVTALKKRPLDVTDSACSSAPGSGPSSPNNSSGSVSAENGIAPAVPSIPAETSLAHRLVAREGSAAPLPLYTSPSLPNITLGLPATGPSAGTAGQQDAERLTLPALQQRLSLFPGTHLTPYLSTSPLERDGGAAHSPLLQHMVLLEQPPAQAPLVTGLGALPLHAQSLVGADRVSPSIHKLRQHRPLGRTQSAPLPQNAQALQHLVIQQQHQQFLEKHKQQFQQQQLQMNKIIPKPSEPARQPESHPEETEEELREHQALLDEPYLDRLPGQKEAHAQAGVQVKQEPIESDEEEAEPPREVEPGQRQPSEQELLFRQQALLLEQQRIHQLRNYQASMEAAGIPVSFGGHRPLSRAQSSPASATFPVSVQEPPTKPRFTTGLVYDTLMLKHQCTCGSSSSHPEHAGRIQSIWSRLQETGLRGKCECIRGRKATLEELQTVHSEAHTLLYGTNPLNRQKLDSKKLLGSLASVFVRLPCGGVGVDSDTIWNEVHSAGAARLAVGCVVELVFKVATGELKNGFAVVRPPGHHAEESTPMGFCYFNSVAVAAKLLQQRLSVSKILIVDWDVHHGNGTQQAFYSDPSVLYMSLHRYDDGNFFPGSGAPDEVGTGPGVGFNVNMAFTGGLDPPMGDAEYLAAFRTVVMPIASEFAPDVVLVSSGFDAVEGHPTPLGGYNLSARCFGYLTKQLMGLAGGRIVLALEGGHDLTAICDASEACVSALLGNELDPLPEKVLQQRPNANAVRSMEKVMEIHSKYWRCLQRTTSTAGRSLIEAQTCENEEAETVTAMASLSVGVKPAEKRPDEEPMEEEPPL

Histone deacetylase 8 = target: T3, Histone deacetylase 8 (Homo sapiens, UniProt Q9BY41); assay: Inhibition of human recombinant HDAC8 using RHKAcKAcAMC as substrate by fluorescence assay
T3 sequence (Q9BY41 whole entry): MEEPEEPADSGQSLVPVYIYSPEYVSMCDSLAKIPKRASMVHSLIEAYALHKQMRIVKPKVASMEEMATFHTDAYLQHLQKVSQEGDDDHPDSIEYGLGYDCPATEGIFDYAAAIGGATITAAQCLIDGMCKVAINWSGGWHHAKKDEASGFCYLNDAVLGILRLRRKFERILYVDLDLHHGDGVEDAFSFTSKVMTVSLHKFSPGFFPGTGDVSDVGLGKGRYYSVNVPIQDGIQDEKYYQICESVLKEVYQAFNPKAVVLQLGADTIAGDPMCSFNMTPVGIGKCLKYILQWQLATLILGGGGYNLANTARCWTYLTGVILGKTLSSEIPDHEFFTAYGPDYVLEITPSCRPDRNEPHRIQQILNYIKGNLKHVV

[4] = target: T4, Polyamine deacetylase HDAC10 (Homo sapiens, UniProt Q969S8); assay: Inhibition of human recombinant HDAC10 using RHKKAcAMC as substrate by fluorescence assay
T4 sequence (Q969S8 whole entry): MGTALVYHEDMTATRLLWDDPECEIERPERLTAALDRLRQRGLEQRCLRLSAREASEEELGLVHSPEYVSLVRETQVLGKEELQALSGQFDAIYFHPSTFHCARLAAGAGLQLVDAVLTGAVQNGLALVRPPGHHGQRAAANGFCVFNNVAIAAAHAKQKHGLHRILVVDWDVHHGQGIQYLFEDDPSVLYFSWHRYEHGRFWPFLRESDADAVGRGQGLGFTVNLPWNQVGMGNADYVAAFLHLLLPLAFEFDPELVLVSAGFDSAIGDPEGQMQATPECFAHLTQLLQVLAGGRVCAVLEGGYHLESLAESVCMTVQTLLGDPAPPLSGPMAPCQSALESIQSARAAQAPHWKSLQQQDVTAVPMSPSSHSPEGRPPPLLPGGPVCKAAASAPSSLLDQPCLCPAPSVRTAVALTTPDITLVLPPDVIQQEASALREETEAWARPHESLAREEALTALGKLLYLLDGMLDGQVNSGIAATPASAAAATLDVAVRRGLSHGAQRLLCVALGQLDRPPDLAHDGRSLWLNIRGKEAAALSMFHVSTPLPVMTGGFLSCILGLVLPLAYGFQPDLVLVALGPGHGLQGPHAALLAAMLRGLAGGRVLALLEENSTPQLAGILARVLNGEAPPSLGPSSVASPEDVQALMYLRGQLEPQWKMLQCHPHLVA

Homo sapiens [5] = organism: Homo sapiens; assay: Selectivity ratio of IC50 for human recombinant HDAC2 to IC50 for human recombinant HDAC6
Homo sapiens [6] = organism: Homo sapiens; assay: Selectivity ratio of IC50 for human recombinant HDAC8 to IC50 for human recombinant HDAC6
Homo sapiens [7] = organism: Homo sapiens; assay: Selectivity ratio of IC50 for human recombinant HDAC1 to IC50 for human recombinant HDAC6
Homo sapiens [8] = organism: Homo sapiens; assay: Selectivity ratio of IC50 for human recombinant HDAC4 to IC50 for human recombinant HDAC6
MV4-11 [9] = assay: Inhibition of class 1 HDAC in human MV4-11 cells assessed as hyperacetylation of histone H3 at higher concentration after 24 hrs by Western blot analysis; assay type: cell-based
[10] = target: T2, Protein deacetylase HDAC6 (Homo sapiens); assay: Inhibition of HDAC6 in human MV4-11 cells assessed as accumulation of acetylated alpha-tubulin at 200 nM after 10 to 1440 mins by Western blot analysis; assay type: cell-based
[11] = target: T2, Protein deacetylase HDAC6 (Homo sapiens); assay: Inhibition of HDAC6 in human MV4-11 cells assessed as accumulation of acetylated alpha-tubulin at 200 nM by Western blot analysis; assay type: cell-based; conditions: TDE = time-dependent effect
MV4-11 [12] = assay: Induction of apoptosis in human MV4-11 cells up to 1 uM after 24 to 48 hrs by Annexin V-PI staining based flow cytometry; assay type: functional, cell-based
MV4-11 [13] = assay: Cell cycle arrest in human MV4-11 cells up to 1 uM after 24 to 48 hrs by propidium iodide staining based flow cytometry; assay type: functional
MV4-11 [14] = assay: Induction of apoptosis in human MV4-11 cells at 5 uM after 24 to 48 hrs by Annexin V-PI staining based flow cytometry; assay type: functional, cell-based
MV4-11 [15] = assay: Induction of apoptosis in human MV4-11 cells at 30 nM after 24 to 48 hrs by Annexin V-PI staining based flow cytometry; assay type: functional, cell-based

IC50 [1] | Compound | inhibition (MV4-11 [2]) | further results
18.5 nM | CCCN1CC(=O)N2[C@H](Cc3c(n(Cc4ccc(C(=O)NO)cc4)c4ccccc34)[C@H]2C)C1=O | – | –
3.73 nM | CCCN1CC(=O)N2Cc3c(c4ccccc4n3Cc3ccc(C(=O)NO)cc3)CC2C1=O (centres undefined) | Active | inhibition [3]: Active; IC50 (Histone deacetylase 1): 8450 nM; IC50 (Histone deacetylase 2): 3340 nM; IC50 (Histone deacetylase 4): 20500 nM; IC50 (Histone deacetylase 8): 747 nM; IC50 [4]: 39500 nM; Ratio IC50 (Homo sapiens [5]): 900; Ratio IC50 (Homo sapiens [6]): 200; Ratio IC50 (Homo sapiens [7]): 2260; Ratio IC50 (Homo sapiens [8]): 5500; inhibition (MV4-11 [9]): Active; inhibition [10]: Active; inhibition [11]: Tde; Activity (MV4-11 [12]): inactive; Activity (MV4-11 [13]): inactive
60.7 nM | CCCN1CC(=O)N2[C@H](C)c3c(c4ccccc4n3Cc3ccc(C(=O)NO)cc3)C[C@H]2C1=O | – | –
9.32 nM | CCCCN1C(=O)C2Cc3c(n(Cc4ccc(C(=O)NO)cc4)c4ccccc34)CN2C1=O (centres undefined) | – | –
4.54 nM | CCN1C(=O)C2Cc3c(n(Cc4ccc(C(=O)NO)cc4)c4ccccc34)CN2C1=O (centres undefined) | Active | –
2.38 nM | CN1C(=O)C2Cc3c(n(Cc4ccc(C(=O)NO)cc4)c4ccccc34)CN2C1=O (centres undefined) | – | –
1.66 nM | CCCN1CC(=O)N2Cc3c(c4cc(OC)ccc4n3Cc3ccc(C(=O)NO)cc3)CC2C1=O (centres undefined) | – | –

Further lines, the compound ahead of its results:

Compound | IC50 [1] | inhibition (MV4-11 [2]) | further results
CCCCN1CC(=O)N2Cc3c(c4ccccc4n3Cc3ccc(C(=O)NO)cc3)CC2C1=O (centres undefined) | 3.26 nM | Active | –
CC(C)CN1CC(=O)N2Cc3c(c4ccccc4n3Cc3ccc(C(=O)NO)cc3)CC2C1=O (centres undefined) | 3.78 nM | Active | –
CCCN1CC(=O)N2Cc3c(c4cc(OCc5ccccc5)ccc4n3Cc3ccc(C(=O)NO)cc3)CC2C1=O (centres undefined) | 1.25 nM | – | –
CCCN1CC(=O)N2[C@H](Cc3c(n(Cc4ccc(C(=O)NO)cc4)c4ccccc34)[C@@H]2C)C1=O | 1.8 nM | – | IC50 (Histone deacetylase 1): 1050 nM; IC50 (Histone deacetylase 2): 1870 nM; IC50 (Histone deacetylase 4): 1440 nM; IC50 (Histone deacetylase 8): 168 nM; IC50 [4]: 1510 nM; Activity (MV4-11 [12]): inactive; Activity (MV4-11 [13]): inactive
CCCN1CC(=O)N2[C@@H](Cc3c(n(Cc4ccc(C(=O)NO)cc4)c4ccccc34)[C@@H]2C)C1=O | 83.5 nM | – | –
Nc1ccccc1NC(=O)c1ccc(CNC(=O)OCc2cccnc2)cc1 | – | Active | Activity (MV4-11 [14]): Active
Cc1[nH]c2ccccc2c1CCNCc1ccc(/C=C/C(=O)NO)cc1 | – | – | Activity (MV4-11 [15]): Active
CN1CC(=O)N2Cc3c(c4ccccc4n3Cc3ccc(C(=O)NO)cc3)CC2C1=O (centres undefined) | 13.6 nM | – | –
CCCN1CC(=O)N2Cc3c(c4cc(O)ccc4n3Cc3ccc(C(=O)NO)cc3)CC2C1=O (centres undefined) | 0.89 nM | – | –
CC(C)CCN1CC(=O)N2Cc3c(c4ccccc4n3Cc3ccc(C(=O)NO)cc3)CC2C1=O (centres undefined) | 24.1 nM | Active | –
CCCN1C(=O)C2Cc3c(n(Cc4ccc(C(=O)NO)cc4)c4ccccc34)CN2C1=O (centres undefined) | 10.1 nM | Active | –
CCN1CC(=O)N2Cc3c(c4ccccc4n3Cc3ccc(C(=O)NO)cc3)CC2C1=O (centres undefined) | 8.03 nM | Active | –
